The values below come from article PMC11855207, “Synthesis and Evaluation of Aromatic A-Ring 23-Oxavitamin D3 Analogues as Hedgehog Pathway Inhibitors” (International Journal of Molecular Sciences, 2025).

Experiment [1] has as its system Cyp24A1 mRNA in SuFu−/− C3H10T1/2 cells. The experiment in a line: Cyp24A1 up-regulation in SuFu−/− C3H10T1/2 cells. Type of experiment: cell-based, mouse. Particulars: 24 h.
Experimental: (§4) The ability of these compounds to regulate Hh and VDR signaling was studied in VDR^−/− and SuFu^−/− C3H10T1/2 cells. If the compounds regulate Hh signaling independently of VDR, their ability to down-regulate Gli1 mRNA expression should be completely abolished in the SuFu^−/− C3H10T1/2 cells [12, 20].
(§5) RNA isolation in C3H10T1/2 cells was performed in 24-well plates (50,000 cells plated; TRIZOL Reagent); in ASZ001, cells were done in 35 mm dishes (300,000 cells plated; TRIZOL Reagent). cDNA synthesis was performed utilizing the SweScript All-in-One RT SuperMix Kit (Servicebio, Wuhan, China) per the manufacturer’s instructions on a BioRad S1000 Thermal Cycler (Hercules, CA, USA). qPCR (Hh signaling pathway and VDR) analysis of target genes was performed on Step OnePlus (ABI) using the Taqman Gene Expression Assays [18, 29]: mouse ActB (Mm00607939_s1), mouse GLI1 (Mm00494645_ml), mouse PTCH1(Mm00436026_m1), and mouse CYP24A1 (Mm00487244_ml). Relative gene expression levels were computed via the ΔΔCt method. […]
Experiment [2] has as its system Hh signaling (Gli1 mRNA) in SuFu−/− C3H10T1/2 cells. The experiment in a line: Gli1 down-regulation in SuFu−/− C3H10T1/2 cells. The class given is cell-based, mouse. Particulars: 24 h.
Experimental: as §4, §5
In experiment [3] the test system is Hh signaling (Gli1 mRNA) in VDR−/− C3H10T1/2 cells. The experiment is described as follows: Gli1 down-regulation in VDR−/− C3H10T1/2 cells. The class given is cell-based, mouse. As to conditions: 24 h.
Experimental: as §4, §5
The test system of experiment [4] is Hh signaling pathway (Gli1 mRNA) in C3H10T1/2 cells. The experiment is described as follows: Gli1 mRNA down-regulation (qPCR) in OHC-stimulated C3H10T1/2 cells. Type of experiment: cell-based, mouse. Particulars: Mus musculus. On the procedure: (§1) The VD3 analogues were initially assessed for their ability to inhibit the Hh signaling pathway by evaluating the effects on endogenous Gli1 mRNA levels at a single concentration (5 μM) co-administration of oxysterols (OHCs; 20(S)-hydroxycholesterol, 22(S)-hydroxycholesterol at 5 μM each) in C3H10T1/2 cells, an Hh-dependent mouse embryonic fibroblast (MEF) cell line. […] VD3 derivatives may retain some VDR agonistic activity, thereby compromising the selectivity of these compounds as Hh inhibitors. The selectivity profile of the analogues for Hh inhibition, compared to typical VDR activation, was assessed by measuring the ability to up-regulate Cyp24a1 mRNA levels in the same cellular system and by evaluating their binding to VDR using a fluorescence polarization-based competition assay (Table 1).
(§2) Mouse embryonic fibroblast cell line (C3H10T1/2, wild-type, VDR^−/−, SuFu^−/−), mouse keratinocyte cell line (ASZ001), and human embryonic kidney cell line (HEK293T) were purchased from China Center for Type Culture Collection (CCTCC; Wuhan, Hubei, China) and cultured under standard protocols. […] Therefore, they can be used to assess the inhibitory strength of the Hh signaling and the selectivity of the VDR signaling. VDR^−/− and SuFu^−/− C3H10T1/2 cells were used to study compounds selectivity for Hh and VDR signaling. If compounds regulate Hh signaling independently of VDR, their ability to down-regulate Gli1 mRNA expression should be abolished in SuFu^−/− C3H10T1/2 cells. […] The loss of Ptch in ASZ001 cells […], so down-regulating Gli1 reflects direct Smo inhibition by the compound. Comparing results from ASZ001 and C3H10T1/2 cells highlights the compound’s inhibition of the Hh signaling pathway.
(§3) RNA isolation in C3H10T1/2 cells was performed in 24-well plates (50,000 cells plated; TRIZOL Reagent); in ASZ001, cells were done in 35 mm dishes (300,000 cells plated; TRIZOL Reagent). cDNA synthesis was performed utilizing the SweScript All-in-One RT SuperMix Kit (Servicebio, Wuhan, China) per the manufacturer’s instructions on a BioRad S1000 Thermal Cycler (Hercules, CA, USA). qPCR (Hh signaling pathway and VDR) analysis of target genes was performed on Step OnePlus (ABI) using the Taqman Gene Expression Assays: mouse ActB (Mm00607939_s1), mouse GLI1 (Mm00494645_ml), mouse PTCH1(Mm00436026_m1), and mouse CYP24A1 (Mm00487244_ml). Relative gene expression levels were computed via the ΔΔCt method. ActinB mRNA expression levels of all samples were normalized to DMSO control ActinB mRNA levels (vehicle; set at 1.00). […] The mRNA expression levels from drug-treated samples were compared to OHCs levels (Gli1, PTCH) and DMSO control (Cyp24A1).
A general note: Quantitative PCR measures a nucleic acid by following its amplification.

The test system of experiment [5] is Cyp24A1 mRNA in VDR−/− C3H10T1/2 cells. The experiment in a line: Cyp24A1 up-regulation in VDR−/− C3H10T1/2 cells. As to conditions: 24 h. The class given is cell-based, mouse.
Experimental: as §4, §5
Experiment [6] deals with VDR signaling (Cyp24A1 mRNA) in ASZ001 cells. The experiment in a line: Cyp24A1 mRNA expression (qPCR) in ASZ001 cells. As to conditions: Mus musculus; ASZ001 cells; 5 μM, 24 h; DMSO set to 1.0; read-out: Cyp24A1 mRNA levels relative to DMSO. The class given is cell-based.
Experimental: (§6) RNA isolation in C3H10T1/2 cells was performed in 24-well plates (50,000 cells plated; TRIZOL Reagent); in ASZ001, cells were done in 35 mm dishes (300,000 cells plated; TRIZOL Reagent). cDNA synthesis was performed utilizing the SweScript All-in-One RT SuperMix Kit (Servicebio, Wuhan, China) per the manufacturer’s instructions on a BioRad S1000 Thermal Cycler (Hercules, CA, USA). qPCR (Hh signaling pathway and VDR) analysis of target genes was performed on Step OnePlus (ABI) using the Taqman Gene Expression Assays [18, 29]: mouse ActB (Mm00607939_s1), mouse GLI1 (Mm00494645_ml), mouse PTCH1(Mm00436026_m1), and mouse CYP24A1 (Mm00487244_ml). Relative gene expression levels were computed via the ΔΔCt method. ActinB mRNA expression levels of all samples were normalized to DMSO control ActinB mRNA levels (vehicle; set at 1.00). […] The mRNA expression levels from drug-treated samples were compared to OHCs levels (Gli1, PTCH) and DMSO control (Cyp24A1).
Another experiment relates to Hh signaling pathway. The experiment in a line: Anti-Hh activity in combination with vismodegib. As to conditions: combined with vismodegib 100 nM. The class given is cell-based.
Experiment [7] relates to primary Ptch-CKO MB cells. The experiment in a line: Anti-proliferation (MTS) in primary Ptch-CKO MB cells. Type of experiment: cell-based. As to conditions: Mus musculus, 48 h incubation, mean ± SEM. On the procedure: Ptch-CKO MB cells, derived from a conditional Patched knockout mouse, lack Ptch-like ASZ001 cells. Consequently, the inhibitory effect of the compound on Ptch-CKO MB cells directly reflects its suppression of the canonical Hh signaling pathway. Cell viability was assessed by MTS proliferation assay kit (Promega, Madison, WI, USA) according to the manufacturer’s protocol. Culture conditions and experimental protocols to determine GI50 values in the primary murine Ptch-CKO MB cells were as previously described.

Experiment [8] relates to Hh signaling pathway (Ptch mRNA) in C3H10T1/2 cells. The experiment in a line: Ptch mRNA down-regulation (qPCR) in C3H10T1/2 cells. Type of experiment: cell-based. Particulars: Mus musculus, C3H 10T1/2; C3H10T1/2 cells; mean ± SEM; read-out: Ptch IC50.
Experimental: as §6
Another experiment deals with ASZ001 cells. The experiment is described as follows: Anti-proliferation (MTS) in ASZ001 cells. Type of experiment: cell-based. As to conditions: Mus musculus, 48 h incubation, mean ± SEM.
A further experiment concerns the target T1, full-length human Smo (Homo sapiens, UniProt Q99835).
T1 construct: HEK293T cells overexpressing full-length human Smo was evaluated; expressed in transfected cells; host or cells: HEK293T
The experiment is described as follows: BODIPY-Cyc displacement (flow cytometry) in HEK293T cells overexpressing Smo. The class given is binding. Particulars: up to 10 μM. (In flow cytometry, cells or beads pass a laser one at a time.)

The target of the next experiment is T2, Smo protein (Homo sapiens, UniProt Q99835).
T2 construct: purchased ACRO Biosystems SMO-H52P3
T2 sequence (Q99835 28-787): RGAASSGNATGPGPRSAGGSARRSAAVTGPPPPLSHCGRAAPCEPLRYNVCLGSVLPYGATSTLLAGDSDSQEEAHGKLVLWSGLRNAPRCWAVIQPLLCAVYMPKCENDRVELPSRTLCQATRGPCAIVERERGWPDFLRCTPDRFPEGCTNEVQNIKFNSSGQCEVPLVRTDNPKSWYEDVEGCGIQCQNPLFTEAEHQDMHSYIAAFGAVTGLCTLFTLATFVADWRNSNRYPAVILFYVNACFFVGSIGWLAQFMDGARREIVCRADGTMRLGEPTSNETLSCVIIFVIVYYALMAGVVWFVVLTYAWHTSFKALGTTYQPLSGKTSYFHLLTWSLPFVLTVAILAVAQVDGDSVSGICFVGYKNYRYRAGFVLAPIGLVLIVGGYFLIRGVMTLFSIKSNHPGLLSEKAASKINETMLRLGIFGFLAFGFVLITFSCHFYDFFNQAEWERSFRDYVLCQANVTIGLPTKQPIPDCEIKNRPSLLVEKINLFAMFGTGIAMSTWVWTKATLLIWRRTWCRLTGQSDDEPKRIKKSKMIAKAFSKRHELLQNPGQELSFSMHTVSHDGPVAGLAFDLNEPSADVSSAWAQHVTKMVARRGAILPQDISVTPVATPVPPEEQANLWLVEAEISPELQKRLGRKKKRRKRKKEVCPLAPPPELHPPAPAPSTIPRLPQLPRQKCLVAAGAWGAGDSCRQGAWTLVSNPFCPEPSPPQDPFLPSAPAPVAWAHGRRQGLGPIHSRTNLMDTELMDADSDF
The experiment in a line: Surface plasmon resonance (SPR) binding to Smo. As to conditions: 2.5, 5, 10 μM in PBS, 4 °C. As for the experimental part:
Surface plasmon resonance (SPR) was used to evaluate the binding capacity of the compounds 3j and 4i to Smo. […] To investigate the binding sites of the analogues on Smo, the ability of 3j and 4i to displace BODIPY-Cyc from HEK293T cells overexpressing full-length human Smo was evaluated. […] Smo contains two small molecule binding sites, one located in the extracellular cysteine-rich domain (CRD) and the other in the 7-transmembrane helix (7-TM) region. […] Endogenous oxidized sterols can regulate Smo activity by binding CRD [27]. These analogues, as mimetics of steroid hormones, may interact with Smo by binding to CRD.
SPR analysis was conducted as described in papers. The analyses of interactions between Smo protein (ACRO Biosystems, SMO-H52P3, Newark, DE, USA) and compounds at different concentrations (2.5, 5, 10 μM) was performed in PBS and a flow rate of 2 μL/s at 4 °C. The sensor chip surface was regenerated by injection of 0.5% SDS: Glycine-HCl (pH = 2.0) = 1:1 solution.
(SPR reads the build-up and loss of mass on a sensor chip optically.)

Experiment [9] deals with Hh signaling pathway (Gli1 mRNA) in ASZ001 cells. The experiment in a line: Gli1 mRNA down-regulation (qPCR) in ASZ001 cells. The class given is cell-based. As to conditions: Mus musculus; ASZ001 cells; mean ± SEM; read-out: Gli1 IC50.
Experimental: Mouse embryonic fibroblast cell line (C3H10T1/2, wild-type, VDR^−/−, SuFu^−/−), mouse keratinocyte cell line (ASZ001), and human embryonic kidney cell line (HEK293T) were purchased from China Center for Type Culture Collection (CCTCC; Wuhan, Hubei, China) and cultured under standard protocols [16]. […] The loss of Ptch in ASZ001 cells prevents Smo inhibition, so down-regulating Gli1 reflects direct Smo inhibition by the compound.
as §6
Another experiment deals with T3, recombinant VDR (Homo sapiens, UniProt P11473).
T3 construct: purchased Thermo Fisher Scientific
T3 sequence (P11473 1-427): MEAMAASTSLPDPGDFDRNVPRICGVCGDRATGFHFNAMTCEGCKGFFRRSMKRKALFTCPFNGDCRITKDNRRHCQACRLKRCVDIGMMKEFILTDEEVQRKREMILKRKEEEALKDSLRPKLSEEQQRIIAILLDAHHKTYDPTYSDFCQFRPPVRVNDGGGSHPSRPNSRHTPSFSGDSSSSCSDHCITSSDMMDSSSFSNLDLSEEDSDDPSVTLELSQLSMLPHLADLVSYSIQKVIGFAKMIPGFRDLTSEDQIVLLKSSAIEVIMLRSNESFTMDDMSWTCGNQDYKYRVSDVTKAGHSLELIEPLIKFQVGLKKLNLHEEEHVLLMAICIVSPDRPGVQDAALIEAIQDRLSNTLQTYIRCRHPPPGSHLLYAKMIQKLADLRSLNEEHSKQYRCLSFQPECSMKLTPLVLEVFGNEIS
The experiment in a line: VDR binding, fluorescence polarization-based competition assay (PolarScreen VDR Competitor Assay Red). Particulars: compounds evaluated at 100 μM. As for the experimental part:
as §1
VDR binding assay was performed using a PolarScreen VDR Competitor Assay Red kit (Thermo Fisher Scientific, Carlsbad, CA, USA) per the manufacturer’s instructions. Compounds were evaluated at 100 μM in 2.5% final DMSO in triplicate. Calcitriol is utilized as a positive control for VDR binding.

Experiment [10] concerns VDR signaling (Cyp24A1 mRNA) in C3H10T1/2 cells. The experiment in a line: Cyp24A1 mRNA up-regulation (qPCR) in C3H10T1/2 cells. Type of experiment: cell-based, mouse. As to conditions: Mus musculus, C3H 10T1/2, 5 μM with OHCs 5 μM, 24 h, relative to DMSO (set to 1.0). On the procedure:
as §1, §2, §3

SMILES strings stand for the structures.

T1 sequence (Q99835 28-787): as the sequence (Q99835 28-787) above
Experimental for full-length human Smo: For flow cytometry experiments [16, 32], HEK293T cells were transfected with Smo-Myc3, co-incubated with BODIPY Cyc and different compounds, and then incubated with anti-Myc antibody, followed by Alexa Flour-647 donkey anti-rabbit antibody. Finally, cells were analyzed for green fluorescence using flow cytometry.

The IC50 is the concentration that inhibits the measured activity by half. One may read the GI50 as the concentration that inhibits growth by half. A low value points to more potent growth inhibition. As for `CC(C)COC[C@@H](C)[C@H]1CC[C@H]2[C@@H](OC(=O)c3cc(O)cc(O)c3)CCC[C@]12C` [Compound 3j], the “Ability to up-regulate Cyp24A1 versus wild-type cells” value in experiment [1] and in experiment [5] was “significantly reduced” in each case. Also, the results for the “Ability to inhibit Hh signaling (Gli1 down-regulation) versus wild-type cells” value in experiment [2] and in experiment [3] were “mostly abolished” and “modestly reduced”, respectively. Further, the mrna remaining at 5 µM in [4] (C3H 10T1/2, 5 μM with OHCs 5 μM, 24 h, relative Gli1 mRNA levels compared to OHCs (set to 100%)) came to 2.4 ± 0.4%. Also, the half-maximal inhibitory concentration (IC50) in experiment [4] (C3H 10T1/2, mean ± SEM) amounted to 1.8 ± 0.3 µM; in experiment [8], 3.6 ± 0.5 µM; in [9], 5.5 ± 0.7 µM. In addition, the fold induction at 5 µM is 2.1 ± 0.3 in experiment [6] and 11.4 ± 1.3 in experiment [10]. The “Change of IC50 value in combination with vismodegib” value with Hh signaling pathway was “did not change the IC50 value”. Moreover, the concentration for 50% growth inhibition (GI50) in experiment [7] was determined as 6.7 ± 0.8 µM; in the experiment on ASZ001 cells, 13.4 ± 1.4 µM. For the same compound, the “Displacement of BODIPY-Cyc from Smo” value on full-length human Smo is recorded as “neither 3j nor 4i affected BODIPY-Cyc-Smo binding interactions”. Besides, the “SPR interaction with Smo” value at Smo protein was “exhibited interactions with Smo”. In addition, the “VDR Binding” value on recombinant VDR is more than 100 µM.
